Molecular target: T1, human Src kinase (Homo sapiens, UniProt P12931)
T1 construct: full length recombinant human Src kinase (from Upstate Biotechnology, cat. no. 14-117); purchased Upstate Biotechnology 14-117; host or cells: baculovirus-infected cells ('baculo viral cells')
Assay: Src inhibition assay (radioactivity-based assay A or spectrophotometric assay B)
Type: biochemical
Excerpt: The compounds of this invention can be evaluated as inhibitors of human Src kinase using either a radioactivity-based assay or spectrophotometric assay.
The compounds can be assayed as inhibitors of full length recombinant human Src kinase (from Upstate Biotechnology, cat. no. 14-117) expressed and purified from baculo viral cells. Src kinase activity is monitored by following the incorporation of ^33P from ATP into the tyrosine of a random poly Glu-Tyr polymer substrate of composition, Glu:Tyr=4:1 (Sigma, cat. no. P-0275). The following are the final concentrations of the assay components: 0.05 M HEPES, pH 7.6, 10 mM MgCl2, 2 mM DTT, 0.25 mg/ml BSA, 10 μM ATP (1-2 μCi ^33P-ATP per reaction), 5 mg/ml poly Glu-Tyr, and 1-2 units of recombinant human Src kinase. In a typical assay, all the reaction components with the exception of ATP are pre-mixed and aliquoted into assay plate wells. […] The plates are sealed and the amount of radioactivity associated with the filters is quantified on a TopCount scintillation counter. The radioactivity incorporated is plotted as a function of the inhibitor concentration. […]
In a typical assay, all the reaction components with the exception of ATP are pre-mixed and aliquoted into assay plate wells. […] The absorbance change at 340 nm with time, the rate of the reaction, is monitored on a molecular devices plate reader. […]

T1 sequence (P12931 whole entry): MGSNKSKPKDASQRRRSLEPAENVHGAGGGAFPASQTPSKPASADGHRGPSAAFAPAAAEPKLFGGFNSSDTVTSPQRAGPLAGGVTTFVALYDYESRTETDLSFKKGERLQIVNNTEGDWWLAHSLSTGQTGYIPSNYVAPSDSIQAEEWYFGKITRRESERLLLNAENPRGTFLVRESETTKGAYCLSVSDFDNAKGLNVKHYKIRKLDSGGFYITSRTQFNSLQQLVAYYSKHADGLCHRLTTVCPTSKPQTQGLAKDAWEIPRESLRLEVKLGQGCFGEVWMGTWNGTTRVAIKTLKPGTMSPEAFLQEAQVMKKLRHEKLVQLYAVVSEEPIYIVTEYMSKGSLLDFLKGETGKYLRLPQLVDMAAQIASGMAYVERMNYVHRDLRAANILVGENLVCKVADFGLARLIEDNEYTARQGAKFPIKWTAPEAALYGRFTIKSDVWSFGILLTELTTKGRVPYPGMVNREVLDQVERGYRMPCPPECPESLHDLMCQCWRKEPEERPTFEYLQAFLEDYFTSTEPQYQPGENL

## Cc1nc(-c2cccs2)sc1-c1ccnc(Nc2ccc(S(N)(=O)=O)cc2)n1 [IIc-22]
  Ki: < 0.1 µM

Source: patent US7361665B2, “Inhibitors of c-Jun N-terminal kinases (JNK) and other protein kinases” (Vertex Pharmaceuticals Incorporated, priority 2002, dated 2008)
